Series [1] relates to BALB/c male mice. Nature of the series: Toxicity test in mice, repeated oral dosing. The series is classed as in vivo.
Series [2] deals with intraperitoneal eosinophilia. Nature of the series: Action on intraperitoneal eosinophilia model mice. The class given is in vivo, BALB/c male mice. To be noted: BALB/c mice sensitized with swine roundworm extract; oral once a day, 10 times; dose 10 mg/kg/day. The procedure: Using five animals per group of BALB/c male mice (about 25 g in body weight), 0.11 mL of physiological saline containing 0.1 mg of swine roundworm extract was administered into the peritoneal cavity of each mouse to sensitize. The same treatment was repeated 7 days after the administration and, 3 days thereafter, each animal was sacrificed by phlebotomy, 3 mL of physiological saline containing 1% dipotassium ethylenediaminetetraacetate (EDTA) was administered by intraperitoneal injection and its abdominal region was massaged for about 30 seconds. […] A portion of the cell suspension was daubed on a slide glass using a spinner to carry out Diff-Quik staining, and then total leukocytes and eosinophils were counted to calculate the ratio of eosinophils in the total leukocytes. The number of total leukocytes in the cell suspension was measured using an automatic blood cell counter. The number of eosinophils in the cell suspension was calculated by multiplying the ratio of eosinophils in the total leukocytes by the number of total leukocytes. […] The dose of each compound to be tested and the intraperitoneal eosinophilia inhibition rate calculated by the following formula are shown in Table 1. […]

Series [3] relates to IFN-γ production of the spleen cell. Nature of the series: Action of IFN-γ production enhancement in tumor-bearing mouse. The class given is in vivo. To be noted: B16F10 tumor-bearing C57BL/6 mouse, oral day 7 to day 21, spleen cells cultivated 24 hours with no stimulation, EIA, N = 7. Here is the method: B16F10 cells cultivated in DMEM (Dulbecco's medium) supplemented with 10% FCS (fetal calf serum) were treated with trypsin, washed with PBS (phosphate buffered saline, pH 7.4), and adjusted in PBS to 1×10^7 cells/ml. The cells were subcutaneously injected in the abdomen of male C57BL/6 mouse (7 week old; body weight, about 23 g) at a dose of 0.1 ml/mouse. The day of tumor inoculation was designated day 0, and the tumor diameter was measured at day 7 with a vernier caliper. The tumor volume was calculated in terms of (minor diameter)^2×(major diameter), and the mice were grouped by using this value and the body weight for the indexes. […] The test compound was orally administered from day 7 to day 21. The solvent used was 0.5% HPMC (Hydroxy propyl methyl cellurose), and the control group was administered only with the solvent. At day 22, the mice were decapitated and the spleens were removed. After weighing the organs, the spleen was homogenized with a glass homogenizer, adjusted to 5×10^6 cells/ml, and cultivated in S-Clone SF-B medium (Sanko Pure Chemicals). The culture supernatant was collected after 24 hours, and […] at −80° C. The supernatant was measured for its IFN-γ concentration (pg/mL) by EIA (Enzyme Immunoassay). The measurement was conducted with an assay kit of ENDOGEN.

In series [4] the test system is SD female rats. Nature of the series: Toxicity test in rats, 14 days oral dosing. Particulars: 0.5% HPMC suspension, 300 mg/kg/day for 14 days. The series is classed as in vivo. Here is the method: SD female rats were orally treated with the compounds of Inventive Examples 54 and 55 suspended in 0.5% aqueous solution of HPMC at a dose of 300 mg/kg/day for 14 days.

The nature of series [5]: Hydrolysis of the ester bond in the rat. The class given is in vivo.
[6] abbreviates: 5% acacia suspension, 100 mg/kg/day for 7 days, observed for 3 days after administration.
The mark [7] stands for this setting: 0.5% HPMC suspension, 100 mg/kg/day for 4 days.

For `O=C(O)CC(O)c1cccc2nc(CCc3ccccc3)[nH]c12` (stereo not drawn), the melting point lay within 103 to 105.3 °C.
Regarding `O=C(O)CC(=O)c1cccc2nc(CCc3ccccc3)[nH]c12` [compound 1], in series [1] (setting [6]), the “Abnormality in body weight and general symptoms” value (“Abnormality” below) is on record as “no abnormality”; the Mortality result is on record as “no mortal case”.
The corresponding values for `COC(=O)CC(=O)c1cccc2nc(CCc3ccccc3)[nH]c12` [compound 2] are “no abnormality” and “no mortal case”.
On to `CCOC(=O)CC(=O)c1cccc2nc(CCc3ccccc3)[nH]c12` [compound 3], for which the “Intraperitoneal eosinophilia inhibition rate (%)” value in series [2] came to 67%.
As for `COC(=O)CC(O)c1cccc2nc(CCc3ccccc3)[nH]c12` (stereo not drawn) [compound 5], in series [1] (setting [6]), the “Abnormality” value is “no abnormality”; the Mortality entry is given as “no mortal case”.
For `CCOC(=O)CC(O)c1cccc2nc(CCc3ccccc3)[nH]c12` (stereo not drawn) [compound 6], the “Abnormality” value in series [1] (setting [7]) is recorded as “no abnormality”. Also, the Mortality result in series [1] (setting [7]) is recorded as “No mortal case”. Further, the “IFN-γ concentration” value was found to be 125 pg/mL in series [3] (dose 10 mg/kg/day), 194 pg/mL in series [3] (dose 30 mg/kg/day) and 263 pg/mL in series [3] (dose 100 mg/kg/day).
Consider `O=C(O)CC(O)c1cccc2nc(CCc3ccccc3)[nH]c12` (stereo not drawn) [compound 7], for which the “Abnormality” value in series [1] (setting [7]) and in series [1] (setting [6]) was “no abnormality” throughout. Moreover, the results for the Mortality result in series [1] (setting [7]) and in series [1] (setting [6]) were “No mortal case” and “no mortal case”, respectively.
On to `CCOC(=O)CC(=O)c1cccc2c1nc(CCc1ccccc1)n2C` [compound 10], for which, in series [1] (setting [6]), the “Abnormality” value is “no abnormality”; the Mortality result is reported as “no mortal case”.
In the case of `CCOC(=O)CC(O)c1cccc2nc(CCc3ccccc3)[nH]c12` (stereo not drawn) [compound 54], in series [1] (setting [7]), the “Abnormality” value is reported as “no abnormality”; the Mortality entry is given as “No mortal case”. The Relative liver weight result in series [4] is recorded as “significant increase”. Moreover, in series [5], the “Ester bond hydrolysis to generate carboxyl group” value is given as “hydrolyzed”.
The like results for `CCOC(=O)CC(O)c1cccc2nc(CCc3ccccc3)[nH]c12` (stereo not drawn) [compound 55] were, in that order, “no abnormality”, “No mortal case”, “no such increase” and “hydrolyzed”.

What is called melting point is the temperature, or range, at which the solid turns liquid.

Values taken from US6387938B1, “Benzimidazole derivatives” (Mochida Pharmaceutical Co., Ltd., priority 1996, dated 2002).
